Data from patent US20170354639A1, “DITERPENOID DERIVATIVES AND METHODS OF USE THEREOF” (Biogen MA Inc., priority 2014, published 2017).

Biological target: Nrf2-Keap1 (Homo sapiens, UniProt Q14145)
Assay: DiscoveRx PathHunter Nrf2-Keap1 nuclear translocation functional assay (agonist format)
Type: cell-based
Details: in duplicate, agonist mode; for activation at 10 µM: single concentration of 10 μM, normalized to control ligand (CDDO methyl ester) and vehicle; for EC50: 10 concentrations, 3-fold serial dilutions, 30 μM top concentration, normalized to CDDO methyl ester and vehicle
Method: DiscoveRx PathHunter® Nrf2-Keap1 Functional Assay
DiscoveRx's Nrf2-Keapl translocation assay was used to profile compounds. Primary Screening was performed in duplicate at a single concentration of 10 μM and EC50 determinations were performed in duplicate at 10 concentrations with 3-fold serial dilutions at a 30 μM top concentration or an otherwise specified top concentration.
The PathHunter® Nuclear Translocation assay detects translocation of a target protein to, or from, the nucleus. In this system, Prolink™ (PK), a small enzyme fragment, is fused to the protein of interest and Enzyme Acceptor (EA) is localized in the nucleus. Activation of the signaling pathway induces the target protein to either transit into the nucleus, thus forcing complementation of the PK and EA fragments, or out of the nucleus, hindering complementation of the fragments.
Cell handling: PathHunter Pathway cell lines were expanded from freezer stocks according to standard procedures. 5000 cells were seeded in Cell Plating Reagent 0 (containing 1% FBS) to a total volume of 20 μL into white walled, 384-well microplates and incubated for the overnight prior to testing.
Agonist format: For Agonist determination, cells were incubated with sample to induce response. Dilution of sample stocks was performed to generate 100× sample in DMSO. Intermediate dilution of sample stocks was performed to generate 5× sample in assay buffer (Cell Plating Reagent 0 containing 1% FBS). 5 μL of 5× sample was added to cells and incubated at room temperature for 6 hours. Vehicle concentration was 1%.
Signal detection: Assay signal was generated through a single addition of 25 μL (100% v/v) of PathHunter Flash Detection reagent, followed by a one hour incubation at room temperature. Microplates were read following signal generation with a PerkinElmer Envision™ instrument for chemiluminescent signal detection.
Data analysis: Compound activity was analyzed using CBIS data analysis suite (ChemInnovation, CA). For agonist mode assays, percentage activity was calculated using the following formula: % Activity=100%×(mean RLU of test sample−mean RLU of vehicle control)/(mean MAX RLU control ligand−mean RLU of vehicle control). For EC50 determination, a control agonist dose response curve was generated in the Keap 1-Nrf2 biosensor assay, data was normalized to the maximal and minimal response observed in the presence of the control ligand and vehicle respectively. CDDO methyl ester was used as a control compound. Compounds were tested in the agonist mode of the assay and data was normalized to the maximal and minimal response observed in the presence of control ligand and vehicle.

Sequence of Nrf2-Keap1 (Q14145 whole entry): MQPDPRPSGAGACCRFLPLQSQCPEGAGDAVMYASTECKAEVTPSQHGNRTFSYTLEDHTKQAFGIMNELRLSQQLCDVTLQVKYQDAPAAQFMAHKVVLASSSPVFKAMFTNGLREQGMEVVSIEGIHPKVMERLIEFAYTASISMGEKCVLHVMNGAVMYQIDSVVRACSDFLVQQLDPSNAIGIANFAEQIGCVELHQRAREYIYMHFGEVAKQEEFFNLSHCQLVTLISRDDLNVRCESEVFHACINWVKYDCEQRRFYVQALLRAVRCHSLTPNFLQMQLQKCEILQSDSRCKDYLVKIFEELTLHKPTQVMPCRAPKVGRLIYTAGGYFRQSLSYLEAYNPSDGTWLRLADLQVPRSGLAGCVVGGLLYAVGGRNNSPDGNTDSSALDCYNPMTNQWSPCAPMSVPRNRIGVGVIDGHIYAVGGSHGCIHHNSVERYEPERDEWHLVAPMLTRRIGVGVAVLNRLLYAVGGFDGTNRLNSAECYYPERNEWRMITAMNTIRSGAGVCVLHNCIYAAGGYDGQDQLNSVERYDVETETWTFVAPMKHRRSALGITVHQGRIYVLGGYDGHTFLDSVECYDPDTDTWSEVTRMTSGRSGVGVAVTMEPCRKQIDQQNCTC

| activation at 10 µM (6 h) [%] | EC50 [nM] | SMILES | activation at 10 µM (6 hours) [%] |
| --- | --- | --- | --- |
| > 100 | 500 to 2000 | C=C1CC[C@@H]2[C@]3(C)CO[S@](=O)O[C@@H]3CC[C@@]2(C)[C@@H]1C/C=C1/C(=O)OC[C@H]1O [Example 8, (S,E)-3-(2-((3S, 4aR, 6aS, 7R, 10aS, 10bR)-6a,10b-dimethyl-8-methylene-3-oxidodecahydro-1H-naphtho[2,1-d][1,3,2]dioxathiin-7-yl)ethylidene)-4-hydroxydihydrofuran-2(3H)-one] |  |
| 51 to 100 |  | C=C1CC[C@@H]2[C@]3(C)COS(=O)O[C@@H]3CC[C@@]2(C)[C@@H]1C/C=C1\C(=O)OC[C@H]1NC=O (stereo partly drawn) [Example 28, N-((3S,Z)-4-(2-((4aR,6aS,7R,10aS,10bR)-6a,10b-dimethyl-8-methylene-3-oxidodecahydro-1H-naphtho[2,1-d][1,3,2]dioxathiin-7-yl)ethylidene)-5-oxotetrahydrofuran-3-yl)formamide] |  |
|  | > 2000 | C=C1CC[C@@H]2[C@]3(C)COCO[C@@H]3CC[C@@]2(C)[C@@H]1C/C=C1/C(=O)OCC1NC(=O)COC (single isomer, unassigned) [Example 46B] |  |
| 51 to 100 |  | C=C1CC[C@H]2[C@@](C)(CC[C@@](C)(O)[C@@]2(C)CO)[C@@H]1C/C=C1/C(=O)OC[C@H]1O [Example 7, (S,E)-4-hydroxy-3-(2-((1R,4aS,5R,6R,8a5)-6-hydroxy-5-(hydroxymethyl)-5,6,8a-trimethyl-2-methylenedecahydronaphthalen-1-yl)ethylidene)dihydrofuran-2(3H)-one] |  |
| > 100 | 500 to 2000 | C=C1CC[C@H]2[C@@](C)(CCC3=NOC[C@]32C)[C@@H]1C/C=C1/C(=O)OC[C@H]1O [Example 11, (S,E)-3-(2-((5aS,6R,9aS,9bS)-5a,9b-dimethyl-7-methylene-1,4,5,5a,6,7,8,9,9a,9b-decahydronaphtho[2,1-c]isoxazol-6-yl)ethylidene)-4-hydroxydihydrofuran-2(3H)-one] |  |
| 51 to 100 |  | C=C1CC[C@H]2[C@@](C)(CC[C@](C)(O)[C@@]2(C)CO)[C@@H]1C/C=C1/C(=O)OC[C@H]1O [Example 6, (S,E)-4-hydroxy-3-(2-((1R,4aS,5R,6S,8a5)-6-hydroxy-5-(hydroxymethyl)-5,6,8a-trimethyl-2-methylenedecahydronaphthalen-1-yl)ethylidene)dihydrofuran-2(3H)-one] |  |

Further lines, the compound ahead of its results:

| SMILES | activation at 10 µM (6 h) [%] | EC50 [nM] | activation at 10 µM (6 hours) [%] |
| --- | --- | --- | --- |
| CC1(C)CCC[C@@]2(C)[C@H]1CCC1(CC1)[C@@H]2C/C=C1\C(=O)OC[C@H]1NC=O [Example 25, N—((S,Z)-5-oxo-4-(2-((1′S,4a′S,8a′S)-5′,5′,8a′-trimethyloctahydro-1′H-spiro[cyclopropane-1,2′-naphthalen]-1′-yl)ethylidene)tetrahydrofuran-3-yl)formamide] | 51 to 100 |  |  |
| C=C1CC[C@@H]2[C@@H](C)[C@@](O)(C(F)(F)F)CC[C@@]2(C)[C@@H]1C/C=C1/C(=O)OCC1NC=O (single isomer, unassigned) [Example 43B] |  | < 500 |  |
| CC1(C)CCC[C@@]2(C)[C@H]1CCC1(CC1)[C@@H]2CC/C=C1/C(=O)OCC1O (stereo partly drawn) [Example 32, (E)-4-hydroxy-3-(3-((1′S,4a′S,8a′S)-5′,5′,8a′-trimethyloctahydro-1′H-spiro[cyclopropane-1,2′-naphthalen]-1′-yl)propylidene)dihydrofuran-2(3H)-one] | 30 to 50 |  |  |
| C=C1CC[C@@H]2[C@]3(C)C=NO[C@@H]3CC[C@@]2(C)[C@@H]1C/C=C1/C(=O)OC[C@H]1O [Example 12, (S,E)-3-(2-((3aR,5aS,6R,9aS,9bR)-5a,9b-dimethyl-7-methylene-3a,4,5,5a,6,7,8,9,9a,9b-decahydronaphtho[1,2-d]isoxazol-6-yl)ethylidene)-4-hydroxydihydrofuran-2(3H)-one] |  | 500 to 2000 | 51 to 100 |
| CC1=CC[C@@H]2[C@@H](C)[C@](O)(C(F)(F)F)CC[C@@]2(C)[C@@H]1C/C=C1/C(=O)OC[C@H]1O [Example 47, (S,E)-4-hydroxy-3-(2-((1R,4aR,5R,6S,8aR)-6-hydroxy-2,5,8a-trimethyl-6-(trifluoromethyl)-1,4,4a,5,6,7,8,8a-octahydronaphthalen-1-yl)ethylidene)dihydrofuran-2(3H)-one] |  | > 2000 |  |
